Measured values as given in ChEMBL document CHEMBL4616655, “Kalparinol, a Salvialane (Isodaucane) Sesquiterpenoid Derived from Native Australian Dysphania Species That Suggests a Putative Biogenetic Link to Zerumbone” (J Nat Prod, 2020).
Calls of active or inactive are those of the source. The rule behind the calls is not given here.

Assays:
NFF = assay: Cytotoxicity against human NFF cells assessed as reduction in cell viability after 6 days by SRB assay; type: cell-based; conditions: 144 h
FaDu = assay: Cytotoxicity against human FADU cells assessed as reduction in cell viability after 6 days by SRB assay; type: functional, cell-based
MM96L = assay: Cytotoxicity against human MM96L cells assessed as reduction in cell viability after 6 days by SRB assay; type: functional, cell-based
CAL-27 = assay: Cytotoxicity against human CAL27 cells assessed as reduction in cell viability after 6 days by SRB assay; type: functional, cell-based
SCC-15 = assay: Cytotoxicity against human SCC15 cells assessed as reduction in cell viability after 6 days by SRB assay; type: functional, cell-based
SCC-25 = assay: Cytotoxicity against human SCC25 cells assessed as reduction in cell viability after 6 days by SRB assay; type: functional, cell-based
SCC-9 = assay: Cytotoxicity against human SCC9 cells assessed as reduction in cell viability after 6 days by SRB assay; type: functional, cell-based
MCF7 = assay: Cytotoxicity against human MCF7 cells assessed as reduction in cell viability after 6 days by SRB assay; type: functional, cell-based
[1] = Stability of compound in DMSO; type: physicochemical
[Candida] auris [2] = Antifungal activity against Candida auris CBS 10913 assessed as reduction in microbial growth up to 200 uM incubated for 24 to 48 hrs; type: functional, organism-based; conditions: Candidozyma auris
Pichia kudriavzevii = assay: Antifungal activity against Pichia kudriavzevii ATCC 6258 assessed as reduction in microbial growth up to 200 uM incubated for 24 to 48 hrs; type: functional, organism-based
Candida albicans = assay: Antifungal activity against Candida albicans ATCC 90028 assessed as reduction in microbial growth up to 200 uM incubated for 24 to 48 hrs; type: functional, organism-based
[Candida] auris [3] = Antifungal activity against Candida auris CBS 12373 assessed as reduction in microbial growth up to 200 uM incubated for 24 to 48 hrs; type: functional, organism-based; conditions: Candidozyma auris
Nakaseomyces glabratus = assay: Antifungal activity against Candida glabrata ATCC 90030 assessed as reduction in microbial growth up to 200 uM incubated for 24 to 48 hrs; type: functional, organism-based

C/C1=C\CC[C@@]2(C)O[C@@H]2CC(C)(C)/C=C/C1=O [ZERUMBONE EPOXIDE]
Activity (NFF): Non-Toxic | Activity (FaDu): inactive | Activity (MM96L): inactive | Activity (CAL-27): inactive | Activity (SCC-15): inactive | Activity (SCC-25): inactive | Activity (SCC-9): inactive | Activity (MCF7): inactive

C[C@@H]1CCC[C@@]2(C)[C@H](C1=O)[C@@H](C(C)(C)O)C[C@@H]2O
Stability [1]: Unstable

C/C1=C/CC[C@@]2(C)O[C@@H]2CC(C)(C)/C=C/C1=O
Activity (NFF): Non-Toxic | Activity (FaDu): inactive | Activity ([Candida] auris [2]): inactive | Activity (Pichia kudriavzevii): inactive | Activity (Candida albicans): inactive | Activity (MM96L): inactive | Activity (CAL-27): inactive | Activity ([Candida] auris [3]): inactive | Activity (SCC-15): inactive | Activity (SCC-25): inactive | Activity (SCC-9): inactive | Activity (Nakaseomyces glabratus): inactive | Activity (MCF7): inactive
